# From patent publication US11566168B1, “Biocide blend for treating wellbores” (Halliburton Energy Services, Inc., priority 2021, dated 2023)
# Columns and labels:
# [1] = Properties that a biocide or blend possesses (Table 1)
# Description: Some of the desirable properties can include maintaining biocidal activity in fluids having a high salinity or a high concentration of total dissolved solids, thermal stability, maintaining biocidal activity in the presence of ammonia or primary amines, quick kill, maintaining biocidal activity for extended periods of time—also known as persistence, and no interaction between the biocide and other additives having a negative charge (anions) within a treatment fluid.
# The second property can be different. […] It is to be understood that unlike a triazine compound, glutaraldehyde is not a formaldehyde-releasing biocide.
# [2] = tested on: acid producing bacteria (APB); test: Elevated temperature study of biocides, kill testing of APB; type: cell-based, indigenous acid producing bacteria; details: for biocidal effectiveness against APB (FIG. 1): biocide-dosed water at 93° C. for 1 week, then 5 days at 32° C. with bacteria
# Method: (§1) To facilitate a better understanding of the various embodiments, the following examples are given. […] Kill testing was performed at 32° C. (89.6° F.) at various contact times as follows. Bacterial populations were augmented prior to testing by culturing indigenous acid producing bacteria (APB) and sulfate reducing bacteria (SRB) in sample waters before starting kill studies. Prior to testing, cultures of APB and SRB from water samples were grown in culture medium. APB were grown in anaerobic phenol red dextrose medium (PRD). SRB were grown in American Petroleum Institute (API) medium without iron. The total dissolved solids (TDS) of SRB and APB media were selected to simulate wellbore fluids for some of the testing. Immediately preceding biocide testing, cultures were harvested by centrifugation. Cell pellets from mature bacteria were resuspended in sample water. The sample water, augmented with bacteria, was dispensed into 60 mL glass bottles and the appropriate amount of biocide was added. At the stated contact time of either 4 hours or 24 hours, biocide samples were taken for quantification. A standard serial dilution method into culture media was used to test biocide efficacy. Controls were serial diluted to theoretical extinction, while biocide-dosed samples were carried through 6 ten-fold dilutions as represented on the Y-axis of the figures. APB were quantitated by serial dilution into PRD medium. SRB were quantified by serial dilution into modified Postgate's medium B (MBP). Culture media were incubated at 32° C. (89.6° F.) and checked periodically. A change from red to yellow indicated a positive APB bottle. Formation of a black precipitate indicated a positive SRB bottle.
# (§2) Elevated temperature studies of the biocides as shown in FIGS. 1 and 2 were conducted by adding 2 times the final biocide test concentration to 100 mL of sample water. The biocide-dosed sample was placed at 93° C. (199.4° F.) for 1 week or 2 weeks, FIG. 1 and FIG. 2, respectively. Following exposure to the elevated temperature, the heat-exposed biocide-dosed material was combined with an equal amount of sample water augmented with APB or SRB bacteria. The sample was then incubated for 5 days at 32° C. (89.6° F.). Following incubation, the sample material was serial diluted into PRD and MPB media for APB and SRB quantitation as discussed above. The biocides for FIGS. 1 and 2 are formaldehyde-releasing biocides. Tris(hydroxymethyl)nitromethane (“THNM”) and 4,4-dimethyloxazolidine (“DMO”) were obtained from DuPont®. Triazine was 1,3,5-triazine that is widely available commercially. Paraformaldehyde and […] (ratio 3:2) (“MBO”) was obtained from Vink chemicals. The formaldehyde-releasing biocides were in a concentration of 100, 150, 500, or 1,000 parts per million (“ppm”).
# [3] = tested on: sulfate reducing bacteria (SRB); test: Elevated temperature study of biocides, kill testing of SRB; type: cell-based, indigenous sulfate reducing bacteria; details: for biocidal effectiveness against SRB (FIG. 1): biocide-dosed water at 93° C. for 1 week, then 5 days at 32° C. with bacteria
# Method: as §1, §2
# [4] = at comparable or lower concentrations, 93° C. for 1 week
# [5] = triazine at 100 ppm, 93° C. for 1 week
Molecule,Activity in ammonia [1],High salinity activity [1],No interaction with anions [1],Quick kill [1],Thermal stability [1],"performance compared with the other formaldehyde-releasing biocides, APB (FIG. 2) ([2]; 150 ppm, 93° C. for 2 weeks)","effectiveness compared with the other formaldehyde-releasing biocides, APB (FIG. 1) [2, 4]",biocidal effectiveness against APB (FIG. 1) [2],"effectiveness compared with MBO, APB (FIG. 1) [2, 5]","performance compared with the other formaldehyde-releasing biocides, SRB (FIG. 2) ([3]; 150 ppm, 93° C. for 2 weeks)","effectiveness compared with the other formaldehyde-releasing biocides, SRB (FIG. 1) [3, 4]",biocidal effectiveness against SRB (FIG. 1) [3],"effectiveness compared with MBO, SRB (FIG. 1) [3, 5]"
"1,3,5-triazine",Yes,Yes,Yes,No,Yes,performed better,as effective or more effective,effective,"as effective as MBO at 1,000 ppm",performed better,as effective or more effective,very effective,"as effective as MBO at 1,000 ppm"
"CC1(C)COCN1 [DMO, 4,4-dimethyloxazolidine, reference compound]",–,–,–,–,–,–,–,effective,–,–,–,not SRB,–
"O=CCCCC=O [Glutaraldehyde, glutaraldehyde, reference compound]",No,Yes,Yes,Yes,No,–,–,–,–,–,–,–,–
